Each compound was assayed against T1, Ephrin type-B receptor 4 (Homo sapiens, UniProt P54760) (assay: blockers of EphB4 ligand binding – biochemical, TNYL-RAW peptide displacement, dose response (AID 835)).
T1 sequence (P54760 whole entry): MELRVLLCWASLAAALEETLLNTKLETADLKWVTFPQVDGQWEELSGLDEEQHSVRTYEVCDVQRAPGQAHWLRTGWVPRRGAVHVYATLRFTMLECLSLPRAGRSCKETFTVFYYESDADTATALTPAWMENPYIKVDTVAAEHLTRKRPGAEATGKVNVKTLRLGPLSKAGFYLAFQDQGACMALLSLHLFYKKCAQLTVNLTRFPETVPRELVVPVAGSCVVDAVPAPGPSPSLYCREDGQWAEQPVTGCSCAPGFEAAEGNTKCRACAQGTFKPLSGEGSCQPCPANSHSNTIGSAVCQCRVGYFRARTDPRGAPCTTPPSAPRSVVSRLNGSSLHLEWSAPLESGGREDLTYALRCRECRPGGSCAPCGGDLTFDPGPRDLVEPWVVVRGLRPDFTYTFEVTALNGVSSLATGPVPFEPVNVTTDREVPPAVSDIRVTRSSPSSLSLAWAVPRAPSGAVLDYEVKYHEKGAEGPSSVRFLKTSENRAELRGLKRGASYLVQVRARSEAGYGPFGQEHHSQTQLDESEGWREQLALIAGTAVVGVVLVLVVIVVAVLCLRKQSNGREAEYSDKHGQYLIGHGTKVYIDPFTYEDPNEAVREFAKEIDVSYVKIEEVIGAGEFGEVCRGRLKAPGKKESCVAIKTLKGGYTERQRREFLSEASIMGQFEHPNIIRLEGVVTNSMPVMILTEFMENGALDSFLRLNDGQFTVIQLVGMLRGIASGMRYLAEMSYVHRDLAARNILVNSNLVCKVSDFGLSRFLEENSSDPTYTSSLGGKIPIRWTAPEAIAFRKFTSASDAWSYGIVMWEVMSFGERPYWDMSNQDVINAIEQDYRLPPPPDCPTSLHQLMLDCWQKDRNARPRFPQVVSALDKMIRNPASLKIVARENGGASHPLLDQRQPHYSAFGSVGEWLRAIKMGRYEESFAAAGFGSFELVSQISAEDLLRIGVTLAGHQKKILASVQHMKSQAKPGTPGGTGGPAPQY

For `Cc1ccc(-n2ncc3c(=O)n(CC(=O)N4CCCCCC4)cnc32)cc1` [5-(2-azepan-1-yl-2-oxoethyl)-1-(4-methylphenyl)-1,5-dihydro-4H-pyrazolo[3,4-d]pyrimidin-4-one], which IC50 is on record?
Its IC50 is greater than 79.4 µM.

`CCOC(=O)c1oc2cccc(O)c2c1CN(Cc1ccccc1)C(C)=O` [3-[[acetyl(benzyl)amino]methyl]-4-hydroxy-coumarilic acid ethyl ester] was tested. Which IC50 did it give?
Its IC50 is greater than 79.4 µM.

With `CCn1c(CSc2nccn2C)nc2cc(C(=O)O)ccc21` [MLS000058666] as the compound, how does the IC50 read?
Its IC50 is greater than 79.4 µM.

With `CCOC(=O)c1cnc(Nc2nc3ccccc3o2)nc1CN1CCN(C)CC1` [2-(1,3-benzoxazol-2-ylamino)-4-[(4-methyl-1-piperazinyl)methyl]-5-pyrimidinecarboxylic acid ethyl ester] as the compound, how does the IC50 read?
The IC50 was greater than 79.4 µM.

With `CCOC(=O)c1c(C)oc2c1c1c(c3ccccc32)OCN(Cc2cccnc2)C1` [MLS000043717] as the compound, how does the IC50 read?
The IC50 was greater than 79.4 µM.

With `COC(=O)c1ccc(NC(=O)CN2CCN(c3cccc(Cl)c3)CC2)cc1` [4-[[2-[4-(3-chlorophenyl)-1-piperazinyl]-1-oxoethyl]amino]benzoic acid methyl ester] as the compound, how does the IC50 read?
Its IC50 is greater than 79.4 µM.

For `Cc1ccc(Nc2cnn(C34CC5CC(CC(CC(=O)O)(C5)C3)C4)c(=O)c2Cl)cc1` [2-[3-[5-chloro-4-(4-methylanilino)-6-oxo-1-pyridazinyl]-1-adamantyl]acetic acid], which IC50 is on record?
The IC50 was greater than 79.4 µM.

How did the IC50 turn out when `O=C(O)c1ccc(CSc2n[nH]c(-c3ccco3)n2)cc1` [4-[[5-(furan-2-yl)-1H-1,2,4-triazol-3-yl]sulfanylmethyl]benzoic acid] was run?
The IC50 was greater than 79.4 µM.

Which IC50 does the source give for `Cc1cccc2c(C(=O)O)c3c(nc12)CCCCC3` [4-methyl-7,8,9,10-tetrahydro-6H-cyclohepta[b]quinoline-11-carboxylic acid] here?
The IC50 was greater than 79.4 µM.

Which IC50 does the source give for `N#Cc1ncc(C(F)(F)F)cc1Sc1ccc(N)cc1` [3-(4-aminophenyl)sulfanyl-5-(trifluoromethyl)pyridine-2-carbonitrile] here?
The IC50 was greater than 79.4 µM.

How did the IC50 turn out when `Oc1ccccc1C=Nn1c(-c2cccs2)n[nH]c1=S` [SMR000168763] was run?
Its IC50 is greater than 79.4 µM.

With `Cc1cc(C)n2nc(SC3CCCCN(C(=O)c4ccc(F)cc4)C3=O)nc2n1` (stereo not drawn) [3-[(5,7-dimethyl-[1,2,4]triazolo[1,5-a]pyrimidin-2-yl)sulfanyl]-1-(4-fluorobenzoyl)azepan-2-one] as the compound, how does the IC50 read?
Its IC50 is greater than 79.4 µM.

For `CCOC(=O)N1CCC(n2c(SCC(=O)NCCC3=CCCCC3)nc3ccccc3c2=O)CC1` [4-[2-[[2-[2-(1-cyclohexenyl)ethylamino]-2-oxoethyl]thio]-4-oxo-3-quinazolinyl]-1-piperidinecarboxylic acid ethyl ester], which IC50 is on record?
Its IC50 is greater than 79.4 µM.

How did the IC50 turn out when `Cc1cc(C(=O)CN2C(=O)NC(c3ccccc3)(c3ccccc3)C2=O)c(C)n1Cc1ccccc1` [3-[2-(1-benzyl-2,5-dimethyl-pyrrol-3-yl)-2-keto-ethyl]-5,5-diphenyl-hydantoin] was run?
The IC50 was greater than 79.4 µM.

With `Cc1ccc(-c2ccc(C(=O)O)[nH]2)cc1` [5-(4-methylphenyl)-1H-pyrrole-2-carboxylic acid] as the compound, how does the IC50 read?
The IC50 was greater than 79.4 µM.

With `Cc1[nH]c2ccccc2c1/C=C1\N=C(c2ccc(F)cc2)OC1=O` [2-(4-fluorophenyl)-4-[(2-methyl-1H-indol-3-yl)methylene]-1,3-oxazol-5(4H)-one] as the compound, how does the IC50 read?
Its IC50 is greater than 79.4 µM.

With `COc1cccc(OC)c1-c1nn2c(-c3cc(-c4ccccc4)n[nH]3)nnc2s1` [MLS000083027] as the compound, how does the IC50 read?
The IC50 was greater than 79.4 µM.

For `COc1ccc(C(=O)NN=C2SCC(=O)N2Cc2ccc3c(c2)OCO3)cc1OC` [3,4-Dimethoxy-benzoic acid (3-benzo[1,3]dioxol-5-ylmethyl-4-oxo-thiazolidin-2-ylidene)-hydrazide], which IC50 is on record?
The IC50 was greater than 79.4 µM.

For `O=C(Nc1ccc2c(c1)OCO2)C1CC(c2ccc(F)cc2)=NO1` (stereo not drawn) [MLS000520439], which IC50 is on record?
Its IC50 is greater than 79.4 µM.

Which IC50 does the source give for `CC1=C(C(=O)N2CCC3(CC2)OCCO3)C2(CCC(C)CC2)OC1=O` (stereo not drawn) [4-(1,4-dioxa-8-azaspiro[4.5]dec-8-ylcarbonyl)-3,8-dimethyl-1-oxaspiro[4.5]dec-3-en-2-one] here?
Its IC50 is greater than 79.4 µM.

`O=C(CSc1nnc(-c2ccccn2)n1Cc1ccccc1)NC1CCCC1` [2-(4-Benzyl-5-pyridin-2-yl-4H-[1,2,4]triazol-3-ylsulfanyl)-N-cyclopentyl-acetamide] was tested. Which IC50 did it give?
Its IC50 is greater than 79.4 µM.

How did the IC50 turn out when `O=S1(=O)c2cccc3cccc(c23)N1Cc1nnc(-c2ccccc2Br)o1` [MLS000081705] was run?
Its IC50 is greater than 79.4 µM.

For `CC(=O)Nc1ccc(OCC=C(Cl)Cl)cc1` [MLS000107919], which IC50 is on record?
The IC50 was greater than 79.4 µM.

How did the IC50 turn out when `CC(O)c1cccc(NC(=O)CCC(=O)O)c1` (stereo not drawn) [4-[3-(1-hydroxyethyl)anilino]-4-keto-butyric acid] was run?
The IC50 was greater than 79.4 µM.

Which IC50 does the source give for `C=CCn1c(NCCc2ccccc2)nc2c1c(=O)n(C)c(=O)n2C` [1,3-dimethyl-8-(2-phenylethylamino)-7-prop-2-enyl-purine-2,6-dione] here?
The IC50 was greater than 79.4 µM.

`Cn1cnnc1SCC(=O)Nc1ccc2nc(SCc3cccc4ccccc34)sc2c1` [2-[(4-methyl-1,2,4-triazol-3-yl)sulfanyl]-N-[2-(naphthalen-1-ylmethylsulfanyl)-1,3-benzothiazol-6-yl]acetamide] was tested. Which IC50 did it give?
Its IC50 is greater than 79.4 µM.

With `Cc1[nH]c2ccccc2c1/C=C1\N=C(c2ccc(C(F)(F)F)cc2)OC1=O` [SMR000152363] as the compound, how does the IC50 read?
Its IC50 is greater than 79.4 µM.

Which IC50 does the source give for `O=C(NNC(=O)C1CCCCC1)C(=O)NC1CCCCC1` [2-[2-(cyclohexanecarbonyl)hydrazinyl]-N-cyclohexyl-2-oxoacetamide] here?
Its IC50 is greater than 79.4 µM.

How did the IC50 turn out when `Cn1cc(S(=O)(=O)N2CCN(c3ccccc3)CC2)c(=O)n(C)c1=O` [1,3-dimethyl-5-(4-phenylpiperazin-1-yl)sulfonyl-pyrimidine-2,4-dione] was run?
The IC50 was greater than 79.4 µM.

How did the IC50 turn out when `CN(C(=O)N1CCN(c2ccccn2)CC1)c1ccccc1` [MLS000534907] was run?
Its IC50 is greater than 79.4 µM.

With `CN(C)c1nc2n(c(=O)n1)CCO2` [2-(dimethylamino)-6,7-dihydro-[1,3]oxazolo[3,2-a][1,3,5]triazin-4-one] as the compound, how does the IC50 read?
The IC50 was greater than 79.4 µM.

Which IC50 does the source give for `CCOC(=O)N1CCC(n2c(SCC(=O)NCc3ccccc3)nc3ccccc3c2=O)CC1` [4-[2-[[2-(benzylamino)-2-keto-ethyl]thio]-4-keto-quinazolin-3-yl]piperidine-1-carboxylic acid ethyl ester] here?
Its IC50 is greater than 79.4 µM.

Which IC50 does the source give for `CCOC(=O)c1ccc(NC(=S)NCC(O)c2ccccc2)cc1` (stereo not drawn) [4-[(2-hydroxy-2-phenyl-ethyl)thiocarbamoylamino]benzoic acid ethyl ester] here?
The IC50 was greater than 79.4 µM.

Which IC50 does the source give for `CCCc1[nH]nc2c1C(c1ccc(OC)c(Cn3nnc4ccccc43)c1)C(C#N)C(=N)O2` (stereo not drawn) here?
Its IC50 is greater than 79.4 µM.

`O=C(Nc1cccnc1)C1COc2ccccc2O1` (stereo not drawn) [2,3-Dihydro-benzo[1,4]dioxine-2-carboxylic acid pyridin-3-ylamide] was tested. Which IC50 did it give?
Its IC50 is greater than 79.4 µM.

For `Cc1cccc(NC(=O)CSc2nnc(-c3ccc(S(=O)(=O)N4CCCC4)cc3)o2)c1` [2-{5-[4-(Pyrrolidine-1-sulfonyl)-phenyl]-[1,3,4]oxadiazol-2-ylsulfanyl}-N-m-tolyl-acetamide], which IC50 is on record?
Its IC50 is greater than 79.4 µM.

Which IC50 does the source give for `CC1(C)Cc2ccccc2-c2nnc(SCC(=O)Nc3nc4ccccc4s3)n21` [MLS000077330] here?
Its IC50 is greater than 79.4 µM.

With `COc1ccccc1C1CC(c2c(O)nc3ccc(Cl)cc3c2-c2ccccc2)=NN1S(C)(=O)=O` (stereo not drawn) [(3Z)-6-chloranyl-3-[5-(2-methoxyphenyl)-1-methylsulfonyl-pyrazolidin-3-ylidene]-4-phenyl-quinolin-2-one] as the compound, how does the IC50 read?
The IC50 was greater than 79.4 µM.

Which IC50 does the source give for `O=C(CCC1N=C2c3ccccc3N=C(SCc3ccc(F)cc3)N2C1=O)NCc1ccco1` (stereo not drawn) [3-{5-[(4-fluorobenzyl)thio]-3-oxo-2,3-dihydroimidazo[1,2-c]quinazolin-2-yl}-N-(2-furylmethyl)propanamide] here?
The IC50 was greater than 79.4 µM.

Which IC50 does the source give for `O=C(CSc1nnnn1Cc1ccccc1)Nc1ccc2c(c1)OCO2` [MLS000067975] here?
The IC50 was greater than 79.4 µM.

With `Cc1cc(=O)n(CC(C)C)c(O)c1C#N` [2-hydroxy-1-isobutyl-4-methyl-6-oxo-1,6-dihydro-3-pyridinecarbonitrile] as the compound, how does the IC50 read?
The IC50 was greater than 79.4 µM.

With `CC(C)CCn1c(SCCN2CCOCC2)nc2c1c(=O)[nH]c(=O)n2C` as the compound, how does the IC50 read?
The IC50 was greater than 79.4 µM.

How did the IC50 turn out when `CCN1C(=O)C(=CNc2ccc(N3CCOCC3)cc2)C(=O)N(CC)C1=S` was run?
The IC50 was greater than 79.4 µM.

With `O=C(O)CCC(=O)N1CCN(c2nc(-c3ccccc3Cl)c3cc(Br)ccc3n2)CC1` [4-[4-[6-bromanyl-4-(2-chlorophenyl)quinazolin-2-yl]piperazin-1-yl]-4-oxidanylidene-butanoic acid] as the compound, how does the IC50 read?
Its IC50 is greater than 79.4 µM.

Which IC50 does the source give for `O=C(/C=C/c1ccccc1Cl)NCc1ccccc1` [(E)-3-(2-chlorophenyl)-N-(phenylmethyl)-2-propenamide] here?
Its IC50 is greater than 79.4 µM.

`CC(=O)Nc1ccc(SCC(=O)OCC(=O)NC(=O)NCc2ccco2)cc1` [2-[(4-acetamidophenyl)thio]acetic acid [2-(2-furfurylcarbamoylamino)-2-keto-ethyl] ester] was tested. Which IC50 did it give?
The IC50 was greater than 79.4 µM.

With `Clc1cccc(CN=Nc2ncnc3ccccc23)c1` [3-chlorobenzenecarbaldehyde N-(4-quinazolinyl)hydrazone] as the compound, how does the IC50 read?
Its IC50 is greater than 79.4 µM.

How did the IC50 turn out when `CCCn1c(NC(=O)C2COc3ccccc3O2)nc2ccccc21` (stereo not drawn) [MLS000053418] was run?
Its IC50 is greater than 79.4 µM.

Source: BindingDB's records for doi:10.7270/Q2KP80J0 (The Scripps Research Institute Molecular Screening Center, 2007)
